These results are taken from ChEMBL document CHEMBL2074565, “Molecular mechanisms of organic cation transport in OCT2-expressing Xenopus oocytes” (Biochim Biophys Acta, 1999).

The target in data set [1] is T1, Solute carrier family 22 member 2 (Rattus norvegicus, UniProt Q9R0W2).
T1 sequence (Q9R0W2 whole entry): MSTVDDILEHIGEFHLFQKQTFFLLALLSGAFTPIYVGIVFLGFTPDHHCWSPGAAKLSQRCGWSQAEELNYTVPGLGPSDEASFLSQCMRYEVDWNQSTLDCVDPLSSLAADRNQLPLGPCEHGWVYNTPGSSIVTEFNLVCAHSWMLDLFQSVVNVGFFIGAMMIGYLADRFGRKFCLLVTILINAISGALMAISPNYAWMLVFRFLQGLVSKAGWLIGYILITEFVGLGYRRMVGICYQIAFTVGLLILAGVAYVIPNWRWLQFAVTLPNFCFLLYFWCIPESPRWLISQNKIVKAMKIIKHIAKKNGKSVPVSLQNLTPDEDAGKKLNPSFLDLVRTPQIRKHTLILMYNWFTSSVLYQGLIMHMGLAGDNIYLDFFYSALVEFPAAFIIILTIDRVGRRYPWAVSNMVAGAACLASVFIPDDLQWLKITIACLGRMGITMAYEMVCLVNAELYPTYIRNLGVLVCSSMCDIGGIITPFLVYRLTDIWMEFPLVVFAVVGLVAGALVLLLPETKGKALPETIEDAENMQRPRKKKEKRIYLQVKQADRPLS
Description: TP_TRANSPORTER: inhibition of TEA uptake (TEA: 100 uM) in Xenopus laevis oocytes. It is filed as functional, cell-based, Oocyte.

Data set [2] addresses T2, Solute carrier family 22 member 1 (Rattus norvegicus, UniProt Q63089).
T2 sequence (Q63089 whole entry): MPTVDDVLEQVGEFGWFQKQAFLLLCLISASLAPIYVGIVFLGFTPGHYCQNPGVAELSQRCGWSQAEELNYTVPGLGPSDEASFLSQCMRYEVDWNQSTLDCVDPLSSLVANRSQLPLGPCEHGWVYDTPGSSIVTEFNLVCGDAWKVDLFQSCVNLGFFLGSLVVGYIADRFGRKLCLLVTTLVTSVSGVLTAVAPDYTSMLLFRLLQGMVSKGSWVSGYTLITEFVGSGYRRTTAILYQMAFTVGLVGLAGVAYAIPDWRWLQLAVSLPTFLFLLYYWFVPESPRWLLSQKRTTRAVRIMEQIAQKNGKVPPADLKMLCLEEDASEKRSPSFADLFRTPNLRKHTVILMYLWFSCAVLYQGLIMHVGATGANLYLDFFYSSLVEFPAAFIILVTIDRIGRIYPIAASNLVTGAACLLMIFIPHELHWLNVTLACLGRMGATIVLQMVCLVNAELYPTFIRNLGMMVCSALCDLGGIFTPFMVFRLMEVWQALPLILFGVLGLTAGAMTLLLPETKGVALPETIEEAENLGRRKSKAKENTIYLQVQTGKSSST

For data set [3], the target named is T1, Solute carrier family 22 member 2. Description: TP_TRANSPORTER: inhibition of TEA uptake (TEA: 250 uM, Levofloxacin: 5000 uM) in Xenopus laevis oocytes. The conditions noted are these: oocyte. It is filed as functional, cell-based.
Substrate in data set [4]: CC[N+](CC)(CC)CC
Kind of data set: cells, lysate or membranes named.

For orientation: IC50 means the point on the concentration scale where inhibition reaches its midpoint. With `CN/C(=N/CCSCc1nc[nH]c1C)NC#N` [CIMETIDINE], the IC50 in data set [1] came to 373 µM; in data set [2], 329 µM.
As to `C[N+](C)(C)CCO` [CHOLINE], the IC50 in data set [1] came to 159 µM; in data set [2], 398 µM.
In the case of `C[C@H]1COc2c(N3CCN(C)CC3)c(F)cc3c(=O)c(C(=O)O)cn1c23.C[C@H]1COc2c(N3CCN(C)CC3)c(F)cc3c(=O)c(C(=O)O)cn1c23.O` [LEVOFLOXACIN], the Activity entry in data set [3] is “inhibitor [+]”.
For the molecule `CCN1/C(=C/c2ccc3ccccc3[n+]2CC)C=Cc2ccccc21`, the IC50 in data set [1] is 13.8 µM.

B1: Solute carrier family 22 member 2 (Rattus norvegicus) (protein)
chain: T1 sequence (Q9R0W2 whole entry)
For orientation: Km means the concentration of substrate that gives half-maximal velocity. In the case of B1, the Km in data set [4] came out at 33.8 µM.
